# Measured values reported in patent US20200297847A1, “Pharmaceutical Composition For Treating Obesity Induced By High Fat Diet And Non-Alcoholic Fatty Liver Disease By Using Trisodium Chlorin E6 Photosensitizer” (DONG SUNG PHARM. CO., LTD., priority 2017, published 2020).
# Assays:
# [1] = tested on: high-fat diet mice; assay: anti-obesity experiment (PDT, body weight of mice fed with high-fat diet); format: in vivo, C57 Black mice; details: group 5: HFD + 2.5 mg/kg intraperitoneally + high-level LED irradiation (4.96 mW/cm^2, 10 min, 2.98 J/cm^2); compared with group 4 (low-level LED) and group 1 (HFD); FIG. 2
# Procedure: (§1) 6-week-old C57 Black mice were purchased and were fed with normal diet for a week of environmental adaptation.
# (§2) After feeding with normal diet for a week, these mice were randomly divided into 7 groups and tested. The body weight thereof was measured periodically (three times per week), and an anti-obesity experiment was conducted when the body weight was about 20% more than the initial body weight. The anti-obesity experiment was as follows.
# For group 1, only high-fat diet (HFD) was provided and the body weight was periodically measured (HFD).
# For group 2, only high-fat diet (HFD) was provided and the body weight was periodically measured, and the mice were placed in an LED-illuminated cage when the body weight thereof was about 20% or more than the initial body weight, followed by irradiation with low-level LED light.
# For group 3, only high-fat diet (HFD) was provided and the body weight was periodically measured, and the mice were placed in an LED-illuminated cage when the body weight thereof was about 20% or more than the initial body weight, followed by irradiation with high-level LED light.
# For group 4, only high-fat diet (HFD) was provided and the body weight was periodically measured, and when the body weight was about 20% or more than the initial body weight, trisodium Chlorin e6 (2.5 mg/kg) was dissolved in 200 μl of a saline solution and administered intraperitoneally. […]
# [2] = tested on: high-fat diet mice; assay: lipid production and examination of non-alcoholic steatohepatitis (morphological examination of liver); format: in vivo, C57 Black mice; details: FIG. 3
# Procedure: as §1, §2
# For group 4, only high-fat diet (HFD) was provided and the body weight was periodically measured, and when the body weight was about 20% or more than the initial body weight, trisodium Chlorin e6 (2.5 mg/kg) was dissolved in 200 μl of a saline solution and administered intraperitoneally. After intraperitoneal administration thereof, the mice were allowed to adapt to a dark room for 3 hr and then placed in an LED-illuminated cage, followed by irradiation with low-level LED light.
# For group 5, only high-fat diet (HFD) was provided and the body weight was periodically measured, and when the body weight was about 20% or more than the initial body weight, trisodium Chlorin e6 (2.5 mg/kg) was dissolved in 200 μl of a saline solution and administered intraperitoneally. […]
# [3] = tested on: mice; assay: toxicity detection (shape of whole body and internal organs after dissection); format: in vivo
# Procedure: The mice treated with Chlorin e6 were tested for potential toxicity by observing the shape of the internal organs through dissection after killing.
# The main concern in the development of medicaments or therapies is safety, and the safe use of medicaments means to effectively treat the disease with minimal or no toxicity in the body or parts of the body. Therefore, in the present experiment, the toxic effects of drugs and LED irradiation were examined. After the mice were dissected, the whole body and internal organs were examined in order to verify toxicity. […] It was observed that the liver was normal other than the fatty liver observed in the groups treated with HFD alone and LED alone (FIG. 6).
substance,measurement,setting,value
trisodium Chlorin e6,weight loss / reduction of percentage of weight gain,[1],the most effective group
same,non-alcoholic steatohepatitis (NASH),"[2]; group 4: HFD + 2.5 mg/kg intraperitoneally + low-level LED irradiation (2.56 mW/cm^2, 5 min, 0.77 J/cm^2)",alleviated
same,non-alcoholic steatohepatitis (NASH),[2]; group 5: HFD + 2.5 mg/kg intraperitoneally + high-level LED irradiation,alleviated
same,toxicity during treatment,[3]; Chlorin e6 and LED irradiation in mice,Toxicity was not observed
same,internal organs after dissection,"[3]; mouse, in vivo","no bleeding, color change or gangrene in the intestines was observed"
